US20240059688A1, “CONOLIDINE ANALOGUES AS SELECTIVE ACKR3 MODULATORS FOR THE TREATMENT OF CANCER” (Luxembourg Institute of Health (LIH), priority 2020, published 2024)

Legend:
Assay type in all cases: cell-based
[1] = molecular target: T1, Mast cells G protein-coupled receptor-X2 (MRGPRX2) (Homo sapiens, UniProt Q96LB1); assay: GPCR β-arrestin screening (PathHunter gpcrMAX/orphanMAX), MRGPRX2; conditions: conolidine 10 μM
T1 sequence (Q96LB1 1-330): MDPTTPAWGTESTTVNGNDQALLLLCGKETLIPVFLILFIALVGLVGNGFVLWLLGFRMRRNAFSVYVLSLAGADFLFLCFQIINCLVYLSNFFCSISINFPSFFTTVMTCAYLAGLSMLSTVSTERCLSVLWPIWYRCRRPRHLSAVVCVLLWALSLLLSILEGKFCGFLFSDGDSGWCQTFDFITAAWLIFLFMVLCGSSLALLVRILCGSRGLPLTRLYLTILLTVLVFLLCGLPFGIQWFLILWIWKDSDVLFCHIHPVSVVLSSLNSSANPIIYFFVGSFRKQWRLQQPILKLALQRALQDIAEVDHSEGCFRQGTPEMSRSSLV
Method: (§1) In an effort to identify the target of conolidine among the GPCR family, we undertook a large scale screening program using a β-arrestin recruitment assay based on β-galactosidase complementation (PathHunter, DiscoverX). Over 240 receptors were tested for their ability to be activated or inhibited by conolidine (10 μM) (data not shown). These included 168 GPCRs from the gpcrMAX panel, covering over 60 distinct receptor families such as adrenergic, dopamine, P2Y or serotonin and 74 GPCRs from the orphanMAX panel.

[2] = molecular target: T2, melatonin receptor 1B (MTNR1B) (Homo sapiens, UniProt P49286); assay: GPCR β-arrestin screening (PathHunter gpcrMAX/orphanMAX), MTNR1B; conditions: conolidine 10 μM
T2 sequence (P49286 1-362): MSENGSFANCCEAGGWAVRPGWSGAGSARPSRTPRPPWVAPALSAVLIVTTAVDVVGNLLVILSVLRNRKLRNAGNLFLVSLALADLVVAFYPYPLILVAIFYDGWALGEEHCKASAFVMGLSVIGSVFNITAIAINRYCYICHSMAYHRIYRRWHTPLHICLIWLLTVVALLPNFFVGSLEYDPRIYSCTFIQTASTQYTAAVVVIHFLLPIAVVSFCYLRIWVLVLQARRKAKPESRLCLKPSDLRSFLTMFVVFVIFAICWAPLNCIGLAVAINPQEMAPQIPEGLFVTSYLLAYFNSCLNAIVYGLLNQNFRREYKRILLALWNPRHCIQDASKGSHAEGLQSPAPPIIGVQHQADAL
Method: as §1

HRH2 = HRH2 (Homo sapiens, UniProt P25021); assay: GPCR β-arrestin screening (PathHunter gpcrMAX/orphanMAX), HRH2; conditions: conolidine 10 μM
Method: as §1

[3] = molecular target: cannabinoid receptor 2 (CNR2) (Homo sapiens, UniProt P34972); assay: GPCR β-arrestin screening (PathHunter gpcrMAX/orphanMAX), CNR2; conditions: conolidine 10 μM
Method: as §1

ACKR3 = ACKR3 (Homo sapiens, UniProt P25106); assay: GPCR β-arrestin screening (PathHunter gpcrMAX/orphanMAX), ACKR3; conditions: conolidine 10 μM; over 240 receptors tested
Method: as §1

Chain of cannabinoid receptor 2 (CNR2) (P34972 whole entry): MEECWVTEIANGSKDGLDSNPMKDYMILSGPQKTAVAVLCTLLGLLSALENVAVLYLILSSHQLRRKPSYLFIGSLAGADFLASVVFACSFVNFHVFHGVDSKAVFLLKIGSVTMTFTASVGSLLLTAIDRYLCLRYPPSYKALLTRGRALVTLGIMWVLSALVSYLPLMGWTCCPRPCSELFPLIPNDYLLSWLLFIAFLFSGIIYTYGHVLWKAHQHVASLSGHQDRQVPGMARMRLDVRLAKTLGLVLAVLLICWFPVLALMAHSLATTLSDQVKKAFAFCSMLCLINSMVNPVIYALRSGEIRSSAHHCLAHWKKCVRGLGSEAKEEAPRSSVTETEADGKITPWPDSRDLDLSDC
Chain of HRH2 (P25021 whole entry): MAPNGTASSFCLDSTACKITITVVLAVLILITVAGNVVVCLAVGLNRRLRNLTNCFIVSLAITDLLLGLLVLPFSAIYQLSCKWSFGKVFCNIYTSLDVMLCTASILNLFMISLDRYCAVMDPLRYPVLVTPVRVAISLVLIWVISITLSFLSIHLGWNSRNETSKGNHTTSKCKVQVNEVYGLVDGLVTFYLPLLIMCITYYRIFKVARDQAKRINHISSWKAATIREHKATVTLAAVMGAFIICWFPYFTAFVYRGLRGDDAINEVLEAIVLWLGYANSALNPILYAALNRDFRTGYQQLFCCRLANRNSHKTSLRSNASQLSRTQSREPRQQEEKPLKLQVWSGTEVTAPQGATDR
Chain of ACKR3 (P25106 whole entry): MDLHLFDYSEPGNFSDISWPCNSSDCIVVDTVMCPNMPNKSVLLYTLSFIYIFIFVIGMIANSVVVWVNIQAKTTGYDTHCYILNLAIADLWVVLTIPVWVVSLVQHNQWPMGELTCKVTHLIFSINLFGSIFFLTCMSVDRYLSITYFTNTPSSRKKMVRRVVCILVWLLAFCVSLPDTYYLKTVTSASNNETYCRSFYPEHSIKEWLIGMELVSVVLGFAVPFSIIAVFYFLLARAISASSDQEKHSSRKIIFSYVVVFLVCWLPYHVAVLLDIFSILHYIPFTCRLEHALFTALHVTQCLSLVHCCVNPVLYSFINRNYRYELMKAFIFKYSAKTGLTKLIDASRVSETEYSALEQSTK

activation of MRGPRX2 in GPCR screening [1]: only partially activated
activation of MTNR1B in GPCR screening [2]: only partially activated
activity towards HRH2 in GPCR screening (HRH2): No activity was detected
activation of CNR2 in GPCR screening [3]: only partially activated
response of ACKR3 in GPCR screening (ACKR3): most responsive receptor
Structure (SMILES): C/C=C1/CN2CC[C@H]1C(=O)c1[nH]c3ccccc3c1C2 [WW-1, (4E,5R)-4-ethylidene-1,4,5,7-tetrahydro-2,5-ethanoazocino[4,3-b]indol-6(3H)-one]
